Where a SMILES comes first, the peptide text is derived from it. Where no end group is shown, it is not given here. [ ]: non-standard residue; d: D form. 3Abz = Nc1cccc(C(=O)O)c1; 4Abz = Nc1ccc(C(=O)O)cc1; 2Abz = Nc1ccccc1C(=O)O; Aib = CC(C)(N)C(=O)O
How the values were obtained:
hIAPP1-37 = biological target: T1, hIAPP1-37 (Homo sapiens, UniProt P10997); test: Time dependent Thioflavin T assay, inhibition of amyloid formation of hIAPP; format: biochemical; conditions: 10-fold molar excess of peptidomimetic co-incubated with hIAPP 40 μM, PBS pH 7.4, 37 °C, up to 7 days; average of 3 replica
T1 construct: 3.1 mg of hIAPP(1-37) was dissolved in 50 μL of HFIP
T1 sequence (P10997 34-70): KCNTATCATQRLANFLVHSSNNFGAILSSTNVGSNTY
Experimental: To examine the inhibitory efficacy of the single breaker element (I26X) containing BSBHps (3, 4 and 5), we performed various biophysical studies in absence and presence of BSBHps and compared the effect with that of the control 2. The BSBHps and the control were co-incubated with hIAPP in PBS pH 7.4 at 37 °C up to 7 days and the kinetics of the amyloid formation was monitored using various biophysical tools. To investigate dose dependence, 2-, 5- and 10-fold molar excess of peptidomimetics were incubated with hIAPP.
(§1) 3.1 mg of hIAPP(1-37) was dissolved in 50 μL of HFIP to obtain disaggregated hIAPP and HFIP was evaporated using nitrogen gas[43]. This process was repeated twice. Then, 5 mL of Milli Q water was added to the disaggregated material and divided the whole solution into 25 equal portions with 200 μL each. All 25 portions are lyophilized followed by addition of 800 μL of PBS (50 mM, pH 7.4) to each portion to obtain a final hIAPP concentration of 40 μM.
(§2) 50 μM Thioflavin T (ThT) in PBS (50 mM, pH 7.4) was prepared. All the synthesized peptides and hIAPP (alone and in some cases mixed with breaker peptides) were dissolved in PBS (50 mM, pH 7.4) to obtain a desired stock solution (40 μM in the case of hIAPP) and incubated at 37 °C over a water bath. To perform the fluorescence study, 40 μL of sample was taken out from the stock solution and was mixed with 200 μL of ThT solution (50 μM); final volume was made up to 400 μL with PBS. For ThT fluorescence assay, emission was measured at 490 nm and excitation at 435 nm, using a slit of 3 nm on a Fluoromax-4, Horiba instrument. The text files were taken from the instrument and graphs were plotted using OriginPro 8 software. For each data point 3 different sets of replica were scanned separately and average was taken with observed standard deviation.

[1] = biological target: T2, preformed fibrils of hIAPP (Homo sapiens, UniProt P10997); test: Time dependent Thioflavin T assay, disruption of preformed fibrils of hIAPP; format: biochemical; conditions: 10-fold molar excess added at 48 h to hIAPP 40 μM preincubated in PBS pH 7.4, 37 °C; total 7 (2 + 5) days; average of 3 replica
T2 construct: 3.1 mg of hIAPP(1-37) was dissolved in 50 μL of HFIP
T2 sequence (P10997 34-70): T1 sequence (P10997 34-70)
Experimental: We already observed that the BSBHps (3, 4, 7, and 8) were efficient inhibitors. Further, we investigated the ability of those molecules to disrupt preformed fibrils of hIAPP in vitro. From the ThT assay (black, Fig. 2a), we observed that hIAPP fibrillzation was maximum at ~45–50 h. Therefore, we designed an experiment where the BSBHps were added into the preformed fibrillar assembly at 48 h (2 days). The hIAPP was incubated alone in PBS pH 7.4 at 37 °C for 48 h (2 days) and then varied molar excess (2-, 5-, and 10-fold) of designed peptidomimetics were added to it and fibril disruption was monitored by various biophysical tools.
as §1, §2

[2] = Stability in presence of human serum (proteolytic enzymes); format: in vitro ADME; conditions: RPMI 1640 with 10% human serum (v/v), 37 °C, 15 min pre-incubation, 10 μL of 5 mg/mL DMSO stock in 1 mL, RP-HPLC and mass spectrometry
Source text: Further, to test the stability of these peptidommetics in biological system we performed in vitro stability study in presence of human serum[37][38] which contained sufficient concentration of proteolytic enzymes. We selected BSBHPs 3 and 7, as from the results of all the experiments described above it was clear that BSBHps 3 (one breaker element containing) and 7 (two breaker elements containing) were the best among all the synthesized peptidomimetics. We compared the stability of 3 and 7 with their native peptide analogue (1) using time dependent HPLC & Mass spectrometry studies.
1 mL of the RPMI (Roswell Park Memorial Institute) 1640 media supplemented with 10% human serum (v/v) obtained from Thermo Fisher Scientific was taken in three different 2 mL eppendorf tube and incubated them at 37 °C for 15 min[38]. Then, 10 μL of the peptidomimetics (1, 3 & 7) in DMSO (5 mg/mL) were separately added to the RPMI media and incubated them at 37 °C. At different time interval 100 μL of the aliquot was taken out from the three different eppendorf tubes and added to 200 μL ethanol solution (96% aqueous ethanol) for precipitation of the serum protein. The precipitate was cooled (4 °C) for 10 min and then centrifuged at 18,000 rpm for 2 min and the pellet was discarded. The supernatant was collected and analyzed by RP-HPLC & Mass spectrometry. A linear gradient was used in the HPLC, from 5–100% CH3CN for 18 min followed by 100% CH3CN till 20 min with a flow rate of 4 mL/min using a semi-preparative C18-μ Bondapak column. Binary solvent system were used, solvent A (0.1% TFA in H2O) and solvent B (0.1% TFA in CH3CN).

[3] = Carboxyfluorescein dye leakage assay; conditions: sample 2: hIAPP incubated for 12 h; LUVs DPPC:cholesterol:GM1 68:30:2, 50 mM HEPES pH 7.4; peptide:lipid 1:20; 0 to 100 min
Experimental: The hIAPP soluble oligomers are known as more toxic than the matured amyloid, since they can damage the cell by forming pores on the cell membrane. […] To perform the vesicle leakage study, we have prepared 9 sets of different samples including untreated LUVs (without any peptide) as control for the experiment. All the peptidomimetics were added to hIAPP solution after 48 h of incubation and kept for total of 7 days (168 h = 48 h + 120 h) of incubation. After that different peptide solutions were added separately to the LUVs and leakage studies were performed. The different type of samples that were prepared is described below;
The peptide and the lipid were present in 1:20 molar ratios during leakage analysis. At the end of the experiment 10 μL of Triton X-100 was added to obtain complete dye release from the vesicle and the final fluorescence was measured. In addition to those, untreated LUVs (natural dye leakage) were studied and used as control. % dye leakage was calculated as[35],
The LUVs were prepared using three different lipids, DPPC, Cholesterol and GM1 with 68:30:2 molar ratios in 50 mM HEPES buffer of pH 7.4. Prior to the LUVs preparation, all the lipids were taken in clean glass vessel and solubilize to make 2 mM stock solution in chloroform and methanol (2:1) and the solvents were evaporated under vacuum. […]

Compound | Inhibition of hIAPP amyloid formation (suppression of ThT fluorescence intensity) (hIAPP1-37) | Disruption of preformed hIAPP amyloid (ThT assay) [1] | other results
CC(C)C[C@H](NC(=O)c1cccc(NC(=O)[C@H](C)NC(=O)CNC(=O)[C@H](Cc2ccccc2)NC(=O)[C@@H](N)CC(N)=O)c1)C(N)=O [Peptide 4] (H-NFGA[3Abz]L-NH2) | ~ 50% | ~ 33% | –
CC(C)C[C@H](NC(=O)c1ccc(NC(=O)[C@H](C)NC(=O)CNC(=O)[C@H](Cc2ccccc2)NC(=O)[C@@H](N)CC(N)=O)cc1)C(N)=O [Peptide 5] (H-NFGA[4Abz]L-NH2) | – | – | Enhancement of ThT fluorescence intensity of hIAPP (hIAPP1-37): ~ 5%
CC(C)C[C@H](NC(=O)c1ccccc1NC(=O)[C@H](C)NC(=O)c1ccccc1NC(=O)[C@H](Cc1ccccc1)NC(=O)[C@@H](N)CC(N)=O)C(N)=O [Peptide 7] (H-NF[2Abz]A[2Abz]L-NH2) | ~ 70% | ~ 57% | Degradation in presence of human serum at 25 h [2]: complete retention of the peak
CC(C)C[C@H](NC(=O)c1ccc(NC(=O)[C@H](C)NC(=O)c2ccc(NC(=O)[C@H](Cc3ccccc3)NC(=O)[C@@H](N)CC(N)=O)cc2)cc1)C(N)=O [Peptide 9] (H-NF[4Abz]A[4Abz]L-NH2) | – | – | Enhancement of ThT fluorescence intensity of hIAPP (hIAPP1-37): ~ 12%
CC[C@H](C)[C@H](NC(=O)[C@H](C)NC(=O)CNC(=O)[C@H](Cc1ccccc1)NC(=O)[C@H](CC(N)=O)NC(=O)[C@H](CC(N)=O)NC(=O)[C@H](CO)NC(=O)[C@H](CO)NC(=O)[C@H](Cc1c[nH]cn1)NC(=O)[C@@H](NC(=O)[C@H](CC(C)C)NC(=O)[C@H](Cc1ccccc1)NC(=O)[C@H](CC(N)=O)NC(=O)[C@H](C)NC(=O)[C@H](CC(C)C)NC(=O)[C@H](CCCNC(=N)N)NC(=O)[C@H](CCC(N)=O)NC(=O)[C@@H](NC(=O)[C@H](C)NC(=O)[C@@H]1CSSC[C@H](NC(=O)[C@@H](N)CCCCN)C(=O)N[C@@H](CC(N)=O)C(=O)N[C@@H]([C@@H](C)O)C(=O)N[C@@H](C)C(=O)N[C@@H]([C@@H](C)O)C(=O)N1)[C@@H](C)O)C(C)C)C(=O)N[C@@H](CC(C)C)C(=O)N[C@@H](CO)C(=O)N[C@@H](CO)C(=O)N[C@H](C(=O)N[C@@H](CC(N)=O)C(=O)N[C@H](C(=O)NCC(=O)N[C@@H](CO)C(=O)N[C@@H](CC(N)=O)C(=O)N[C@H](C(=O)N[C@@H](Cc1ccc(O)cc1)C(N)=O)[C@@H](C)O)C(C)C)[C@@H](C)O [hIAPP] | – | – | Dye leakage of LUVs treated with hIAPP [3]: rapid increment of dye leakage
NFGAIL-NH2 [Peptide 1, reference compound] | – | – | Degradation in presence of human serum after 1 h ([2]; after 1 h): complete degradation

Further lines, with some results ahead:

Inhibition of hIAPP amyloid formation (suppression of ThT fluorescence intensity) (hIAPP1-37) | Disruption of preformed hIAPP amyloid (ThT assay) [1] | Compound | other results
~ 40% | ~ 23% | CC(C)C[C@H](NC(=O)C(C)(C)NC(=O)[C@H](C)NC(=O)CNC(=O)[C@H](Cc1ccccc1)NC(=O)[C@@H](N)CC(N)=O)C(N)=O [Peptide 2] (H-NFGA[Aib]L-NH2) | –
~ 55% | ~ 40% | CC(C)C[C@H](NC(=O)c1ccccc1NC(=O)[C@H](C)NC(=O)CNC(=O)[C@H](Cc1ccccc1)NC(=O)[C@@H](N)CC(N)=O)C(N)=O [Peptide 3] (H-NFGA[2Abz]L-NH2) | Degradation in presence of human serum at 25 h [2]: some degradation
~ 52% | ~ 40% | CC(C)C[C@H](NC(=O)C(C)(C)NC(=O)[C@H](C)NC(=O)C(C)(C)NC(=O)[C@H](Cc1ccccc1)NC(=O)[C@@H](N)CC(N)=O)C(N)=O [Peptide 6] (H-NF[Aib]A[Aib]L-NH2) | –
~ 65% | ~ 44% | CC(C)C[C@H](NC(=O)c1cccc(NC(=O)[C@H](C)NC(=O)c2cccc(NC(=O)[C@H](Cc3ccccc3)NC(=O)[C@@H](N)CC(N)=O)c2)c1)C(N)=O [Peptide 8] (H-NF[3Abz]A[3Abz]L-NH2) | –
